Assay results from patent US8481525B2, “Kinase inhibitors and method of treating cancer with same” (University of Health Network, priority 2009, dated 2013).
Structures can show the parent of a compound that is named as a salt. Where two headings read alike, the source gives them in different places.

Key:
Assay in all cases: Cell growth inhibition, Sulforhodamine B assay (SRB)
Type in all cases: cell-based
[1] = tested on: HCC1954 basal breast cancer cell line; settings: Homo sapiens
Protocol: (§1) The cells were cultured for 5 days before the Sulforhodamine B assay (SRB) was performed to determine the compound's cell growth inhibition activity.
(§2) Sulforhodamine B (purchased from Sigma, Oakville, ON, Canada) is a water-soluble dye that binds to the basic amino acids of the cellular proteins. Thus, colorimetric measurement of the bound dye provides an estimate of the total protein mass that is related to the cell number. the cells are fixed in situ by gently aspirating off the culture media and adding 50 μl ice cold 10% Trichloroacetic Acid (TCA) per well and incubate at 4° C. for 30-60 min, The plates are washed with water five times and allowed to air dry for 5 min. […] Following staining, plates are washed four times with 1% acetic acid to remove unbound dye and then allowed to air dry for 5 min. […] Absorbance is read at 570 nm.
(§3) The percentage (%) of relative growth inhibition was calculated by comparing to DMSO treated only cells (100%). GI50's were determined for compounds with cytotoxic activity. The GI50 was calculated using GraphPad PRISM software (GraphPad Software, Inc., San Diego, Calif., USA).

[2] = tested on: A549 lung cancer cell line; settings: Homo sapiens, read-out: Cell Line GI50 Range A-549
Protocol: as §1, §2, §3

[3] = tested on: SW620 colon cancer cell line; settings: Homo sapiens, SW-620, 120 h
Protocol: as §1, §2, §3

[4] = tested on: MCF-7 luminal breast cancer cell line; settings: Homo sapiens, MCF7, 120 h
Protocol: as §1, §2, §3

[5] = tested on: MDA-MB-468 basal breast cancer cell line; settings: Homo sapiens
Protocol: as §1, §2, §3

[6] = 120 h, HCC1954 basal breast cancer cell line, 5 days culture, SRB, read-out: Cell Line GI50 Range HCC-1954
[7] = 120 h, A549 lung cancer cell line, 5 days culture, SRB
[8] = SW620 colon cancer cell line, 5 days culture, SRB, read-out: Cell Line GI50 Range SW-620
[9] = MCF-7 luminal breast cancer cell line, 5 days culture, SRB, read-out: Cell Line GI50 Range MCF-7
[10] = 120 h, MDA-MB-468 basal breast cancer cell line, 5 days culture, SRB, read-out: Cell Line GI50 Range MDA-MB-468
[11] = HCC1954, 120 h, read-out: Cell Line GI50 Range HCC-1954
[12] = read-out: Cell Line GI50 Range MCF-7, MCF-7 luminal breast cancer cell line, 5 days culture, SRB
[13] = HCC1954, 120 h, HCC1954 basal breast cancer cell line, 5 days culture, SRB, read-out: Cell Line GI50 Range HCC-1954
[14] = read-out: Cell Line GI50 Range SW-620, SW620 colon cancer cell line, 5 days culture, SRB

Row | GI50 [1, 6] [nM] | GI50 [2, 7] [nM] | GI50 [3, 8] [nM] | GI50 [4, 9] [nM] | GI50 [5, 10] [nM] | Structure (SMILES) | other results
1 | 100 to 1000 | 100 to 1000 | 100 to 1000 | 100 to 1000 | 100 to 1000 | Cc1ccc2c(c1)[C@@]1(C[C@@H]1c1ccc3c(-c4ccc(N5CCN(C)CC5)cc4)n[nH]c3c1)C(=O)N2 (racemic) [Example A173, (1R*,2S*)-5′-methyl-2-(3-(4-(4-methylpiperazin-1-yl)phenyl)-1H-indazol-6-yl)spiro[cyclopropane-1,3′-indolin]-2′-one 2,2,2-trifluoroacetate] | –
2 | > 10000 | – | 100 to 1000 | < 100 | – | COc1ccc2c(c1)[C@]1(C[C@H]1c1ccc3c(/C=C/c4cccc(CN5CCOCC5)c4)n[nH]c3c1)C(=O)N2 (racemic) [Example A133, (1R*,2S*)-5′-methoxy-2-(3-(3-(morpholinomethyl)styryl)-1H-indazol-6-yl)spiro[cyclopropane-1,3′-indolin]-2′-one 2,2,2-trifluoroacetate] | –
3 | > 10000 | 100 to 1000 | 1000 to 10000 | 1000 to 10000 | 100 to 1000 | COc1ccc2c(c1)[C@@]1(C[C@@H]1c1ccc3c(-c4ccc(CO)cc4)n[nH]c3c1)C(=O)N2 (racemic) [Example A45, (1R*,2S*)-2-(3-(4-(hydroxymethyl)phenyl)-1H-indazol-6-yl)-5′-methoxyspiro[cyclopropane-1,3′-indolin]-2′-one 2,2,2-trifluoroacetate] | –
4 | 100 to 1000 | < 100 | < 100 | < 100 | < 100 | COc1ccc2c(c1)[C@@]1(C[C@@H]1c1ccc3c(/C=C/c4ccc(N5CCN(C)CC5)cc4)n[nH]c3c1)C(=O)N2 (racemic) [Example A174, (1R*,2S*)-(E)-5′-methoxy-2-(3-(4-(4-methylpiperazin-1-yl)styryl)-1H-indazol-6-yl)spiro[cyclopropane-1,3′-indolin]-2′-one 2,2,2-trifluoroacetate] | –
5 | > 10000 | 1000 to 10000 | 1000 to 10000 | 1000 to 10000 | 1000 to 10000 | COc1ccc2c(c1)[C@@]1(C[C@@H]1c1ccc3c(-c4cccc(CO)c4)n[nH]c3c1)C(=O)N2 (racemic) [Example A43, (1R*,2S*)-2-(3-(3-(hydroxymethyl)phenyl)-1H-indazol-6-yl)-5′-methoxy spiro[cyclopropane-1,3′-indolin]-2′-one 2,2,2-trifluoroacetate] | –
6 | 1000 to 10000 | < 100 | < 100 | 100 to 1000 | 100 to 1000 | COc1ccc2c(c1)[C@@]1(C[C@@H]1c1ccc3c(-c4ccc(N5CCN(C)CC5)cc4)n[nH]c3c1)C(=O)N2C (racemic) [Example A100, (1R*,2S*)-5′-methoxy-1′-methyl-2-(3-(4-(4-methylpiperazin-1-yl)phenyl)-1H-indazol-6-yl)spiro[cyclopropane-1,3′-indolin]-2′-one 2,2,2-trifluoroacetate] | –
7 | – | 1000 to 10000 | 1000 to 10000 | 1000 to 10000 | 1000 to 10000 | COc1ccc2c(c1)[C@@]1(C[C@@H]1c1ccc3c(-c4cccc(N5CCNCC5)c4)n[nH]c3c1)C(=O)N2 (racemic) [Example A47, (1R*,2S*)-5′-methoxy-2-(3-(3-(piperazin-1-yl)phenyl)-1H-indazol-6-yl)spiro[cyclopropane-1,3′-indolin]-2′-one 2,2,2-trifluoroacetate] | GI50 [1, 13]: 1000 to 10000 nM
8 | – | < 100 | 100 to 1000 | < 100 | < 100 | CN1C(=O)[C@@]2(C[C@H]2c2ccc3c(/C=C/c4ccc(CN5CCOCC5)cc4)n[nH]c3c2)c2ccccc21 (racemic) [Example A87, (1R*,2S*)-(E)-1′-methyl-2-(3-(4-(morpholinomethyl)styryl)-1H-indazol-6-yl)spiro[cyclopropane-1,3′-indolin]-2′-one 2,2,2-trifluoroacetate] | GI50 [1, 13]: 1000 to 10000 nM
9 | – | – | 100 to 1000 | – | – | COc1ccc2c(c1)[C@]1(C[C@H]1c1ccc3c(/C=C/c4cccc(CN(C)C)c4)n[nH]c3c1)C(=O)N2 (racemic) [Example A135, (1R*,2S*)-2-(3-(3-((dimethylamino)methyl)styryl)-1H-indazol-6-yl)-5′-methoxyspiro[cyclopropane-1,3′-indolin]-2′-one 2,2,2-trifluoroacetate] | GI50 [1, 13]: > 10000 nM

The next lines start with the molecule.

Row | Structure (SMILES) | GI50 [1, 6] [nM] | GI50 [2, 7] [nM] | GI50 [3, 8] [nM] | GI50 [4, 9] [nM] | GI50 [5, 10] [nM] | other results
10 | COc1ccc2c(c1)[C@@]1(C[C@@H]1c1ccc3c(-c4ccc(N5CCN(C)CC5)cc4)n[nH]c3c1)C(=O)N2 (racemic) [Example A38, (1R*,2S*)-5′-Methoxy-2-(3-(4-(4-methylpiperazin-1-yl)phenyl)-1H-indazol-6-yl)spiro[cyclopropane-1,3′-indolin]-2′-one] | – | – | – | – | – | GI50 ([1]; HCC1954, 120 h, read-out: Cell Line GI50 Range HCC-1954, HCC1954 basal breast cancer cell line, 5 days culture, SRB): > 10000 nM; GI50 ([2]; A549, 120 h): < 100 nM; GI50 ([3]; read-out: Cell Line GI50 Range SW-620): 100 to 1000 nM; GI50 ([4]; read-out: Cell Line GI50 Range MCF-7): 100 to 1000 nM; GI50 ([5]; MDA-MB-468, 120 h, read-out: Cell Line GI50 Range MDA-MB-468, MDA-MB-468 basal breast cancer cell line, 5 days culture, SRB): < 100 nM
11 | COc1ccc2c(c1)[C@@]1(C[C@@H]1c1ccc3c(-c4ccnc(N5CCN(C)CC5)c4)n[nH]c3c1)C(=O)N2 (racemic) [Example A37, (1R*,2S*)-5′-Methoxy-2-(3-(2-(4-methylpiperazin-1-yl)pyridin-4-yl)-1H-indazol-6-yl)spiro[cyclopropane-1,3′-indolin]-2′-one] | > 10000 | < 100 | < 100 | > 10000 | 100 to 1000 | –
12 | COc1ccc2c(c1)[C@]1(C[C@H]1c1ccc3c(/C=C/c4ccc(CN5CCCCC5)nc4)n[nH]c3c1)C(=O)N2 (racemic) [Example A62, (1R,2S)-(E)-5′-methoxy-2-(3-((E)-2-(6-(piperidin-ylmethyl)pyridin-3-yl)vinyl)-1H-indazol-6-yl)spiro[cyclopropane-1,3′-indolin]-2′-one 2,2,2-trifluoroacetate salt] | – | – | – | – | – | GI50 [1, 11]: 1000 to 10000 nM
13 | O=C1Nc2ccc(F)cc2[C@@]12C[C@@H]2c1ccc2c(/C=C/c3ccc(CN4CCOCC4)cc3)n[nH]c2c1 (racemic) [Example A219, (1R*,2S*)-(E)-5′-fluoro-2-(3-(4-(morpholinomethyl)styryl-1H-indazol-6-yl)spiro[cyclopropane-1,3′-indolin]-2′-one 2,2,2-trifluoroacetate] | – | – | – | – | – | GI50 [1, 11]: 100 to 1000 nM; GI50 [4, 12]: 100 to 1000 nM
14 | O=C1Nc2ccccc2[C@@]12C[C@@H]2c1ccc2c(/C=C/c3cccnc3)n[nH]c2c1 (racemic) [Example A28, (1R*,2S*)-2-(3-((E)-2-(pyridin-3-yl)vinyl)-1H-indazol-6-yl)spiro-[cyclopropane-1,3′-indolin]-2′-one] | – | 1000 to 10000 | – | 1000 to 10000 | – | GI50 [1, 13]: 1000 to 10000 nM
15 | CN(C)Cc1ccc(/C=C/c2n[nH]c3cc([C@@H]4C[C@@]45C(=O)Nc4ccccc45)ccc23)cc1 [Example A24, (1R,2S)-(E)-2-(3-(4-((dimethylamino)methyl)styryl)-1H-indazol-6-yl)spiro[cyclopropane-1,3′-indolin]-2′-one 2,2,2-trifluoroacetate] | – | – | – | – | – | GI50 [3, 14]: < 100 nM
16 | O=C1Nc2ccccc2[C@]12C[C@H]2c1ccc2cn[nH]c2c1 (relative stereo) [Example A2, (1R*,2S*)-2-(1H-indazol-6-yl)spiro[cyclopropane-1,3′-indolin]-2′-one] | – | – | – | – | – | GI50 [1, 11]: > 10000 nM; GI50 ([2]; A549, 120 h): > 10000 nM; GI50 [3, 14]: > 10000 nM; GI50 [4, 12]: > 10000 nM; GI50 ([5]; MDA-MB-468, 120 h, read-out: Cell Line GI50 Range MDA-MB-468): > 10000 nM
17 | CCN(CC)Cc1ccc(/C=C/c2n[nH]c3cc([C@@H]4C[C@@]45C(=O)Nc4ccccc45)ccc23)cc1 (relative stereo) [Example A211, (1R*,2S*)-(E)-2-(3-(4-((diethylamino)methyl)styryl)-1H-indazol-6-yl)spiro-[cyclopropane-1,3′-indolin]-2′-one 2,2,2-trifluoroacetate] | – | – | – | – | – | GI50 [3, 14]: 100 to 1000 nM; GI50 [4, 12]: 100 to 1000 nM
18 | COc1ccc2c(c1)[C@]1(CC1c1ccc3c(/C=C/c4ccc(CN5C[C@@H](C)O[C@@H](C)C5)cc4)n[nH]c3c1)C(=O)N2 (relative stereo) [Example A186, (1R*,2S*)-(E)-2-(3-(4-trans-2,6-dimethylmorpholino)methyl)styryl)-1H-indazol-6-yl)-5′-methoxspiro[cyclopropane-1,3′-indolin]-2′-one 2,2,2-trifluoroacetate] | 1000 to 10000 | – | – | – | – | –
